Molecules are shown by their SMILES. “And” between values parts separate entries of the source, which are not always exact repeats. Equal entries are not always repeated.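 Compound exposure: 48 hours, 5 concentrations, 96-well plates. Abbreviation: GI50, concentration required for 50% inhibition of growth. TGI marks complete inhibition of growth.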

Assay in all cases: growth of human tumour cells (NCI), 48 h
The subject of assay [1] is DU-145 prostate.
In assay [2] the test system is TK-10 renal.
Assay [3] deals with UACC-62 melanoma.
Assay [4] relates to SW-620 colon.
In assay [5] the test system is UO-31 renal.
The subject of assay [6] is EKVX NSCLC.
Assay [7] has as its system SF-268 CNS.
Assay [8] has as its system HOP-62 NSCLC.
Assay [9] deals with NCI-H522 lung.
Assay [10] has as its system KM12 colon.

For `O=C(N/N=C/c1c(Cl)cccc1Cl)c1ccc(C(F)(F)F)nc1Nc1cccc(C(F)(F)F)c1`, the GI50 is 1.79 µM in assay [1]; 2.87 µM in assay [2]; 1.39 µM in assay [3]; 0.458 µM in assay [4]; 1.49 µM in [5]; 0.886 µM in assay [6]. Besides, the GI50 in [7] was 1.22 µM; in [8], 1.29 µM; in assay [9], 1.76 µM; in [10] it was 1.1 µM. The TGI was above 32.8 µM in assay [1]; above 91.4 µM in assay [2]; 4.12 µM in assay [3]; above 51.1 µM in assay [4]; 5.82 µM in assay [5]; above 27.9 µM in [6]. The TGI is above 29.3 µM in assay [7], 14.4 µM in [8], above 33.6 µM in [9] and above 30 µM in [10].

For `COc1ccc(/C=C(/c2ccccc2)[N+](=O)[O-])cc1`, the GI50 in assay [1] was 1.65 µM; in assay [2], 1.98 µM; in assay [3], 1.5 µM; in [4], 1.34 µM; in [5], 1.13 µM; in [6], 1.73 µM. Also, the GI50 is 1.82 µM in assay [7], 1.82 µM in [8], 1.65 µM in [9] and 1.85 µM in assay [10]. Besides, the TGI is 3.05 µM in [1]; 3.93 µM in assay [2]; 3.17 µM in assay [3]; 3.18 µM in assay [4]; 2.35 µM in [5]; 3.52 µM in assay [6]. Moreover, the TGI in assay [7] came out at 3.77 µM; in assay [8], 3.79 µM; in [9] it was 4.16 µM; in assay [10] it was 3.5 µM.

On to `Cc1ccc(S(=O)(=O)NC(=O)NC2=NC(C)(C)N(c3ccc(Cl)c(Cl)c3)C(N)=N2)cc1`, for which the TGI in [1], in assay [2], in [3], in assay [4], in [5] and in assay [6] was above 100 µM each time. Also, the TGI in assay [7], in assay [8], in assay [9] and in assay [10] was above 100 µM each time.

On to `O=C(O)C12CC3(C(=O)O)CC(C(=O)O)(CC(C(=O)O)(C1)C3=O)C2=O`, for which the TGI in [1], in [2], in assay [3], in assay [4], in assay [5] and in assay [6] was above 100 µM throughout. In addition, the TGI in assay [7], in assay [8], in assay [9] and in assay [10] was above 100 µM in each case.

For `COCOc1ccc(C2(O)Oc3cc(OCOC)ccc3C2C)c(O)c1` (centres undefined), the TGI came out at 25.8 µM in [1]; 32.5 µM in [2]; 25.5 µM in assay [3]; 32.4 µM in [4]; 23.8 µM in [5]; 28.2 µM in [6]. Also, the TGI was 30 µM in assay [7], 32 µM in [8], 32.8 µM in assay [9] and 31.7 µM in assay [10].

For `O=c1[nH]c(=O)n([C@H]2CCCO2)cc1F`, the GI50 in assay [1] is 910 µM; in assay [2], 1880 µM; in assay [3], 2040 µM; in assay [4] it was 1430 µM; in assay [6] it was above 2060 µM; in [7], 3000 µM. Besides, the GI50 is 2340 µM in [8], above 2650 µM in assay [9] and 1320 µM in assay [10]. Besides, the TGI in [1], in assay [2], in assay [3], in assay [4], in assay [5] and in assay [6] was above 5000 µM each time. Also, the TGI was above 5000 µM in assay [7]; 994 µM and > 4660 µM in [8]; above 5000 µM in [9]; above 5000 µM in [10].

`COc1ccc2c(Oc3ccc(NC(=O)c4c(C)n(CC(C)(C)O)n(-c5ccccc5)c4=O)nc3)ccnc2c1`: the GI50 in assay [1] was 12.1 µM; in [2], 5.92 µM; in [3], 6.14 µM; in assay [4], 34.2 µM; in [5], 4.41 µM; in assay [6], 23.3 µM. The GI50 in assay [7] was 16.8 µM; in [8], 27.8 µM; in assay [9], 6.84 µM; in [10], 2.23 µM. Moreover, the TGI in assay [1] is above 100 µM; in [2], 19.8 µM; in [3], 42.2 µM; in [4], above 100 µM; in assay [5], above 100 µM; in [6], above 80.3 µM. Further, the TGI was above 100 µM in assay [7], above 100 µM in assay [8], 26.7 µM in assay [9] and above 100 µM in [10].

`CC(O)CC(O)(C(F)(F)F)C(F)(F)F` (centres undefined): the TGI in assay [1], in [2], in assay [3], in assay [4], in assay [5] and in [6] was above 10 µM in each case. Further, the TGI in [7], in assay [8], in assay [9] and in assay [10] was above 10 µM each time.

Take `C/C(=N\NC(=S)N1CC2CCC(CC2)C1)c1ccccn1`: the GI50 in assay [1] is 0.408 µM; in assay [2] it was 0.405 µM; in [3], 0.309 µM; in [4], 0.033 µM; in assay [5] it was 0.021 µM; in assay [6], 0.0322 µM. Besides, the GI50 in assay [7] was 0.185 µM; in assay [8], 0.142 µM; in assay [9], 0.195 µM; in assay [10] it was 0.0837 µM. In addition, the TGI amounted to 2.83 µM in [1]; 1.78 µM in assay [2]; 3.3 µM in assay [3]; 1.57 µM in assay [4]; 1.63 µM in assay [5]; 1.16 µM in assay [6]. The TGI in assay [7] was 2.4 µM; in assay [8] it was 1.69 µM; in assay [9], 1.27 µM; in [10] it was 1.59 µM.

`CC(C)C1=C2CCC3(C)C(CCC4C5C6OCC5(CCC6(C)C)CCC43C)C2(C)CC1` (centres undefined): the TGI stood at 37.5 µM in assay [1]; 31 µM in [2]; 41.3 µM in assay [3]; 50.8 µM in assay [4]; 33.8 µM in [5]; 39.2 µM in assay [6]. The TGI worked out at 69.9 µM in [7], 38.9 µM in [8], 36.5 µM in assay [9] and 35.2 µM in [10].

As for `Nc1ccc2[nH]cc(CCC(=O)O)c2c1`, the TGI in assay [1], in [2], in assay [3], in assay [4], in assay [5] and in assay [6] was above 100 µM in each case. The TGI in assay [7], in assay [8], in assay [9] and in [10] was above 100 µM in each case.

These data come from PubChem BioAssay (NCI).
